Reference: article PMC7815789, “Degradation of complex arabinoxylans by human colonic Bacteroidetes” (Nature Communications, 2021)

How the values were obtained:
Type in all cases: biochemical
[1] = target: T1, BACINT_01033-CE1 (Bi1033-CE1) (Bacteroides intestinalis, UniProt B3C969); assay: ferulic acid release, HPLC-DAD; settings: 200 uM substrate, 50 nM enzyme, 50 mM sodium citrate, 150 mM NaCl, pH 6.5, 37 °C, 10 min
T1 construct: dimer; N-terminal Ig-like domain, esterase domain residues 126-383
T1 sequence (B3C969 24-387): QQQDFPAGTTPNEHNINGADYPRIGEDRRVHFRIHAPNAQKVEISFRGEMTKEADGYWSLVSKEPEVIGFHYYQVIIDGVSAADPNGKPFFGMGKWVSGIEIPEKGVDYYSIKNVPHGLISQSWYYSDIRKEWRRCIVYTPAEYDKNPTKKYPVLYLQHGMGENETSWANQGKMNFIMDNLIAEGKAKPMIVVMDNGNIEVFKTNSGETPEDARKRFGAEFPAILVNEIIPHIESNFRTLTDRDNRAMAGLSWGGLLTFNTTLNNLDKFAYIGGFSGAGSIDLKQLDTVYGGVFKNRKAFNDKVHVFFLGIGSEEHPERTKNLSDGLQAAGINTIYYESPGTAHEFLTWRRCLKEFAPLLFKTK

[2] = target: T2, BACINT_01038-CE6/CE1 (Bi1038-CE6/CE1) (Bacteroides intestinalis, UniProt B3C974); assay: ferulic acid release, HPLC-DAD; settings: […] substrate, […] enzyme, […] sodium citrate, […] NaCl, pH […] °C, […] min
T2 construct: two modules (CE6, CE1)
T2 sequence (B3C974 59-680): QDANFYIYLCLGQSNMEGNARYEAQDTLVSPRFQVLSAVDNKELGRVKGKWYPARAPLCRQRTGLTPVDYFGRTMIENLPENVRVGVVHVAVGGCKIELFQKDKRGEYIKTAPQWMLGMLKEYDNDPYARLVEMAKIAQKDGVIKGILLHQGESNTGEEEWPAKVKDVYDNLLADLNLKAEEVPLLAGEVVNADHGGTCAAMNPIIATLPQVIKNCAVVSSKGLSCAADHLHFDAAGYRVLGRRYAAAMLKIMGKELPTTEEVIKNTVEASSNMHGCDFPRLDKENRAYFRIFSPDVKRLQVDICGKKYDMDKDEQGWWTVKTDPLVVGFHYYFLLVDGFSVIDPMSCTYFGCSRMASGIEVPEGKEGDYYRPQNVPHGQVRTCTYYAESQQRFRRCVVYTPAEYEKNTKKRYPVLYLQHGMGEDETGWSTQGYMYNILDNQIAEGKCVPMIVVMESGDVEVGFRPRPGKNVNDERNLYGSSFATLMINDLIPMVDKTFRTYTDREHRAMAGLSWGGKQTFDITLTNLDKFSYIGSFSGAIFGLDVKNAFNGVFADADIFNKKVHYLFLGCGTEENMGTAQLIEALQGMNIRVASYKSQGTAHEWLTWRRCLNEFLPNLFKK

[3] = target: T3, BACINT_01042-GH3 (Bi1042-GH3) (Bacteroides intestinalis, UniProt B3C978); assay: xylose release, HPAEC-PAD; settings: pH […] °C, […] h, […] enzyme
T3 sequence (B3C978 19-862): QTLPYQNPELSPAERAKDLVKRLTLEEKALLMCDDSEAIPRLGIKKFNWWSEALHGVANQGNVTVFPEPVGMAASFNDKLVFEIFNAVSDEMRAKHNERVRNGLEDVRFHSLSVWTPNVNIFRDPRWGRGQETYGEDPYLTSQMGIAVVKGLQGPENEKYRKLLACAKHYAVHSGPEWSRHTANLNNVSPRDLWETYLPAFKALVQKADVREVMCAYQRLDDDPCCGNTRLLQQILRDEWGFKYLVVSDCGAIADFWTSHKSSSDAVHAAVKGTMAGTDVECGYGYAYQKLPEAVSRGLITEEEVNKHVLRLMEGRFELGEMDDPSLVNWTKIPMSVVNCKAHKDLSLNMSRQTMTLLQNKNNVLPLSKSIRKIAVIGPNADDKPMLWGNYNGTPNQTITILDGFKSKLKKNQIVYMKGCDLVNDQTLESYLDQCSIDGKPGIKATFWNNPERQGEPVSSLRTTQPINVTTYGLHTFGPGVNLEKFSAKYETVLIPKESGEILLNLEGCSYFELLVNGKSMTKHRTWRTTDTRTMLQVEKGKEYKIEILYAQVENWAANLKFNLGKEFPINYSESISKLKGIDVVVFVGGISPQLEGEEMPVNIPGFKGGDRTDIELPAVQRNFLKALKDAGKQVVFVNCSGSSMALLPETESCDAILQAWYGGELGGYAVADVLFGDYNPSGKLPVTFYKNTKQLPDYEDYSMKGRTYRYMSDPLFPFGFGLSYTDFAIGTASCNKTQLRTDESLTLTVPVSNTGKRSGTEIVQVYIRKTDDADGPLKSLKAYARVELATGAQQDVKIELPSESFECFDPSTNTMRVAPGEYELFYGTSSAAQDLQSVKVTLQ

[4] = target: T2, BACINT_01038-CE6/CE1 (Bi1038-CE6/CE1); assay: pNP release at […] nm; settings: […] substrate, […] enzyme, […] MOPS pH […] °C
[5] = target: T4, BACINT_01039-CE1 (Bi1039-CE1) (Bacteroides intestinalis, UniProt B3C975); assay: pNP release at […] nm; settings: 1 mM substrate, 50 nM enzyme, 0.1 M MOPS pH 7.5, 37 °C
T4 construct: dimer; crystal structure residues 25-382, esterase domain 126-382
T4 sequence (B3C975 25-382): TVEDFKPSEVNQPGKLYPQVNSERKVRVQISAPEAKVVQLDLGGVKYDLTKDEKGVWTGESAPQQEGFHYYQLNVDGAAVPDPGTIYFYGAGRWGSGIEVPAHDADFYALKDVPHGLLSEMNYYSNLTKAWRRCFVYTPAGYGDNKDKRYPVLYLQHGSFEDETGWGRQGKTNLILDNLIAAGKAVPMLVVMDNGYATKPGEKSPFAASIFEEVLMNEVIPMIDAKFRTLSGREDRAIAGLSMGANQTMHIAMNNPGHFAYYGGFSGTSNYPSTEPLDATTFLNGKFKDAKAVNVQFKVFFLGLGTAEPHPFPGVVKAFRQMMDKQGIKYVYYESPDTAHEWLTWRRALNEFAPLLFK

SMILES: COc1cc(/C=C/C(=O)OC[C@@H]2OC(O)[C@H](O)[C@H]2O)ccc1O (stereo partly drawn) [FA, feruloylated monosaccharide (FA)]
- ferulic acid release, HPLC-DAD [1]: exhibits low ferulic acid cleavage activity on feruloylated monosaccharide (FA)

SMILES: COc1cc(/C=C/C(=O)OC[C@@H]2O[C@@H](O[C@@H]3[C@@H](O)[C@H](O[C@@H]4COC(O)[C@H](O)[C@H]4O)OC[C@H]3O)[C@H](O)[C@H]2O)ccc1O (stereo partly drawn) [FAXX, feruloylated trisaccharide (FAXX)]
- ferulic acid release, HPLC-DAD [2]: showed some activity on both FA and FAXX

SMILES: OC1OC[C@@H](O[C@@H]2OC[C@@H](O)[C@H](O)[C@H]2O)[C@H](O)[C@H]1O (stereo partly drawn) [X2, xylobiose]
- xylose release, HPAEC-PAD [3]: Bi1042-GH3 cleaves xylo-oligosaccharides to xylose or X1

SMILES: OC1OC[C@@H](O[C@@H]2OC[C@@H](O[C@@H]3OC[C@@H](O)[C@H](O)[C@H]3O)[C@H](O)[C@H]2O)[C@H](O)[C@H]1O (stereo partly drawn) [X3, xylotriose]
- xylose release, HPAEC-PAD [3]: Bi1042-GH3 cleaves xylo-oligosaccharides to xylose or X1

SMILES: CC(=O)Oc1ccc([N+](=O)[O-])cc1 [pNP acetate]
- pNP release at 400 nm [4]: activities on the synthetic substrates were from Bi1040-FAE and Bi1038-CE6/CE1, respectively
- pNP release at 400 nm [5]: activity of the wild-type Bi1039-CE1, observed with pNP acetate as the substrate
